Measured values from patent publication US10100061B2, “Oxazepine compound and agricultural/horticultural insecticide containing said compound as active ingredient, and method for using the same” (NIHON NOHYAKU CO., LTD., priority 2014, dated 2018).

Tested on: Green Peach Aphid (Myzus Persicae)
Test: Test of preventive value against green peach aphid (Test Example 1)
Type: in vivo
Settings: 500 ppm, sprayed over stems and leaves of potted Chinese cabbages, sixth day after spraying
Procedure: Test of Preventive Value Against Green Peach Aphid (Myzus Persicae)
Chinese cabbages were planted in plastic pots, each with a size of 8 cm in diameter and 8 cm in height, after which green peach aphids were propagated and the number of parasitic insects was examined in each pot. An oxazepine compound or salt thereof expressed by General Formula (I) according to the present invention was dispersed in water and the dispersion was diluted to 500 ppm in the form of a reagent, after which the reagent was sprayed over stems and leaves of potted Chinese cabbages and let dry under wind, and the pots were kept in a greenhouse, and on the sixth day after the reagent was sprayed, the number of green peach aphids living parasitically on each Chinese cabbage was examined and the preventive value was calculated based on the formula below, and judgment was made according to the criteria below. Preventive value=100−{(T×Ca)/(Ta×C)}×100 [Mathematical Formula 1] • Ta: Number of parasitic insects inside the treatment area before spraying • T: Number of parasitic insects inside the treatment area after spraying • Ca: Number of parasitic insects inside the non-treatment area before spraying • C: Number of parasitic insects inside the non-treatment area after spraying Judgment Criteria • A - - - Preventive value: 100% • B - - - Preventive value: 99%˜90% • C - - - Preventive value: 89%˜80% • D - - - Preventive value: 79%˜50%

Row | SMILES | Preventive value, judgment
1 | O=C1c2nn(-c3cccnc3)cc2Oc2cc(F)ccc2N1CCCCBr [8-34] | A to D
2 | O=C1Nc2ccc(Cl)cc2Oc2cn(-c3cccnc3)nc21 [1-26] | A to D
3 | CN1C(=O)c2nn(-c3cccnc3)cc2Oc2ncc(C(F)(F)F)cc21 [4-10] | A to D
4 | CC(=O)N1Cc2nn(-c3cccnc3)cc2Oc2ccc(F)cc21 [3-9] | A to D
5 | COc1ccc2c(c1)Oc1cn(-c3cccnc3)nc1C(=O)N2C [1-40] | A to D
6 | O=C1Nc2ccccc2Nc2cn(-c3cccnc3)nc21 [10-1] | A to D
7 | Cc1ccc2c(c1)Oc1cn(-c3cccnc3)nc1C(=O)N2 [1-30] | A to D
8 | N#CCN1C(=O)c2nn(-c3cccnc3)cc2Oc2sccc21 [15-4] | A to D
9 | CN1CCN(C2=Nc3cc(F)ccc3Oc3cn(-c4cccnc4)nc32)CC1 [11-13] | A to D
10 | NC(=O)CN1C(=O)c2nn(-c3cccnc3)cc2Oc2ccc(F)cc21 [8-52] | A to D
11 | CC(=O)OCN1C(=O)c2nn(-c3cccnc3)cc2Oc2ccccc21 [8-9] | A to D
12 | CC(C)=CCN1C(=O)c2nn(-c3cccnc3)cc2Oc2ccccc21 [8-6] | A to D
13 | Cc1nn(C)c2c1N(C)C(=O)c1nn(-c3cccnc3)cc1O2 [14-2] | A to D
14 | CN1C(=O)c2nn(-c3cccnc3)cc2Oc2ccc(Cl)cc21 [8-55] | A to D
15 | O=C1c2nn(-c3cccnc3)cc2Oc2ccccc2N1CC[S+]([O-])CCC(F)(F)F (stereo not shown) [8-18] | A to D
16 | N#CC(F)N1C(=O)c2nn(-c3cccnc3)cc2Oc2cc(F)ccc21 (stereo not shown) [8-33] | A to D
17 | C#CCN1C(=O)c2nn(-c3cccnc3)cc2Oc2c1c(C)nn2C [14-4] | A to D
18 | COCN1C(=O)c2nn(-c3cccnc3)cc2Oc2c(F)cccc21 [8-22] | A to D
19 | CN1C(=O)c2nn(-c3cccnc3)cc2Oc2ccc(Br)cc21 [8-63] | A to D
20 | N#CCCCN1C(=O)c2nn(-c3cccnc3)cc2Oc2cc(F)ccc21 [8-30] | A to D

Row | SMILES | Preventive value, judgment
21 | CC#CCN1C(=O)c2nn(-c3cccnc3)cc2Oc2ccccc21 [8-5] | A to D
22 | CC(C)CN1C(=O)c2nn(-c3cccnc3)cc2Oc2cc(F)ccc21 [8-28] | A to D
23 | CN1C(=O)c2nn(-c3cccnc3)cc2Oc2sccc21 [15-2] | A to D
24 | O=C1Nc2ccc(Cl)cc2Oc2c1nn(-c1cccnc1)c2Cl [9-4] | A to D
25 | O=C1c2nn(-c3cccnc3)cc2Oc2ccccc2N1CC1OCCO1 [8-11] | A to D
26 | CN1C(=O)c2nn(-c3cccnc3)cc2Oc2cccc(Cl)c21 [8-59] | A to D
27 | O=CCN1C(=O)c2nn(-c3cccnc3)cc2Oc2ccccc21 [8-15] | A to D
28 | CN1C(=O)c2nn(-c3cccnc3)cc2Oc2cc(I)ccc21 [8-67] | A to D
29 | NC(=O)CCN1C(=O)c2nn(-c3cccnc3)cc2Oc2ccccc21 [8-8] | A to D
30 | O=C1c2nn(-c3cccnc3)cc2Oc2ccc(F)cc2N1CCN1CCOCC1 [8-44] | A to D
31 | O=C1Nc2ccsc2Oc2cn(-c3cccnc3)nc21 [15-1] | A to D
32 | O=C1c2nn(-c3cccnc3)cc2Oc2ccc(F)cc2N1CC1CC1 [8-36] | A to D
33 | O=C1c2nn(-c3cccnc3)cc2Oc2ccc(F)cc2N1CC1OCCO1 [8-43] | A to D
34 | N#CCN1Cc2nn(-c3cccnc3)cc2Oc2cc(F)ccc21 [3-5] | A to D
35 | C#CCN1C(=O)c2nn(-c3cccnc3)cc2Oc2ccc(Br)cc21 [8-65] | A to D
36 | CN1Cc2nn(-c3cccnc3)cc2Oc2ccccc21 [3-2] | A to D
37 | N#CCN1C(=O)c2nn(-c3cccnc3)c(Cl)c2Oc2cc(F)ccc21 [9-5] | A to D
38 | CSCN1C(=O)c2nn(-c3cccnc3)cc2Oc2ccc(F)cc21 [8-47] | A to D
39 | O=C1c2nn(-c3cccnc3)cc2Oc2ccccc2N1CCSCCC(F)(F)F [8-17] | A to D
40 | CN1C(=O)c2nn(-c3cccnc3)cc2Oc2cc(Br)ccc21 [8-61] | A to D

Row | SMILES | Preventive value, judgment
41 | O=C1c2nn(-c3cccnc3)cc2Oc2ccccc2N1CCS(=O)(=O)CCC(F)(F)F [8-19] | A to D
42 | C#CCN1C(=O)c2nn(-c3cccnc3)cc2Oc2sccc21 [15-3] | A to D
43 | CC(C#N)N1C(=O)c2nn(-c3cccnc3)cc2Oc2ccc(F)cc21 (stereo not shown) [8-50] | A to D
44 | O=C1c2nn(-c3cccnc3)cc2Oc2cc(F)ccc2N1CC1CC1 [8-27] | A to D
45 | O=C1Nc2ccc(Br)cc2Oc2cn(-c3cccnc3)nc21 [8-60] | A to D
46 | CON=CCN1C(=O)c2nn(-c3cccnc3)cc2Oc2ccccc21 [8-16] | A to D
47 | O=C1c2nn(-c3cccnc3)cc2Oc2ccc(F)cc2N1CC(F)(F)F [8-39] | A to D
48 | O=C1Nc2cccc(Cl)c2Oc2cn(-c3cccnc3)nc21 [1-22] | A to D
49 | C[S+]([O-])CN1C(=O)c2nn(-c3cccnc3)cc2Oc2ccccc21 (stereo not shown) [8-3] | A to D
50 | c1cncc(-n2cc3c(n2)C(N2CCOCC2)=Nc2ccccc2O3)c1 [11-14] | A to D
51 | CN1C(=O)c2nn(-c3cncc(Br)c3)cc2Oc2ccccc21 [1-83] | A to D
52 | CN1CCN(C2=Nc3ccccc3Oc3cn(-c4cccnc4)nc32)CC1 [11-12] | A to D
53 | CN(C)C(=O)CN1C(=O)c2nn(-c3cccnc3)cc2Oc2ccccc21 [8-7] | A to D
54 | N#CCCCN1C(=O)c2nn(-c3cccnc3)cc2Oc2ccc(F)cc21 [8-51] | A to D
55 | CCC(C)N1C(=O)c2nn(-c3cccnc3)cc2Oc2cc(F)ccc21 (stereo not shown) [8-29] | A to D
56 | C[Si](C)(C)C#CC1=Nc2ccccc2Oc2cn(-c3cccnc3)nc21 [11-4] | A to D
57 | O=CN1C(=O)c2nn(-c3cccnc3)cc2Oc2ccc(F)cc21 [8-53] | A to D
58 | CN(C)C(=O)N1C(=O)c2nn(-c3cccnc3)cc2Oc2ccccc21 [8-14] | A to D
59 | C[S+]([O-])CN1C(=O)c2nn(-c3cccnc3)cc2Oc2ccc(F)cc21 (stereo not shown) [8-48] | A to D

Tested on: Small Brown Planthopper (Laodelphax Striatellus)
Test: Test of insecticidal efficacy against small brown planthopper (Test Example 2)
Type: in vivo
Settings: 500 ppm, rice plants soaked 30 seconds, third-instar larvae, eight days after inoculation; criteria same as in Test Example 1
From the text: Test of Insecticidal Efficacy Against Small Brown Planthopper (Laodelphax Striatellus)

Row | SMILES | Corrected insect mortality, judgment
60 | O=C1c2nn(-c3cccnc3)cc2Oc2cc(F)ccc2N1CCCCBr [8-34] | A to D
61 | O=C1Nc2ccc(Cl)cc2Oc2cn(-c3cccnc3)nc21 [1-26] | A to D
62 | CN1C(=O)c2nn(-c3cccnc3)cc2Oc2ncc(C(F)(F)F)cc21 [4-10] | A to D
63 | Cc1ccc2c(c1)Oc1cn(-c3cccnc3)nc1C(=O)N2C [1-31] | A to D
64 | COc1ccc2c(c1)Oc1cn(-c3cccnc3)nc1C(=O)N2C [1-40] | A to D
65 | Cc1ccc2c(c1)Oc1cn(-c3cccnc3)nc1C(=O)N2 [1-30] | A to D
66 | CN(C)CCN1C(=O)c2nn(-c3cccnc3)cc2Oc2ccccc21 [1-69] | A to D
67 | C=CCN1C(=O)c2nn(-c3cccnc3)cc2Oc2cc(F)ccc21 [8-23] | A to D
68 | N#CCN1C(=O)c2nn(-c3cccnc3)cc2Oc2ccc(Br)cc21 [8-66] | A to D
69 | C#CCN1Cc2nn(-c3cccnc3)cc2Oc2ccccc21 [3-3] | A to D
70 | C=CCN1C(=O)c2nn(-c3cccnc3)cc2Oc2c1c(C)nn2C [14-3] | A to D
71 | Fc1ccc2c(c1)N=C(N1CCOCC1)c1nn(-c3cccnc3)cc1O2 [11-15] | A to D
72 | CCOCN1C(=O)c2nn(-c3cccnc3)cc2Oc2ccccc21 [8-21] | A to D
73 | N#CCN1C(=O)c2nn(-c3cccnc3)cc2Oc2ccc(Cl)cc21 [8-57] | A to D
74 | COCOC1=Nc2ccccc2Oc2cn(-c3cccnc3)nc21 [11-16] | A to D
75 | C=CCN1C(=O)c2nn(-c3cccnc3)cc2Oc2ccc(Cl)cc21 [8-58] | A to D
76 | C=CCN1C(=O)c2nn(-c3cccnc3)cc2Oc2ccc(Br)cc21 [8-64] | A to D
